# Test results: patent US20240239774A1, “SOLUBLE ADENYLYL CYCLASE (SAC) INHIBITORS AND USES THEREOF” (Cornell University, priority 2021, published 2024)
# “Also recorded” adds a separate entry of the source.
# What was measured:
# mouse sperm [1] = assay: Flagellar beat analysis of single sperm; format: cell-based; details: stimulation with 25 mM NaHCO3; 5 μM Example 1 or 10 nM Example 133
# Experimental: An inverted dark-field video microscope (IX73; Olympus) with a 10× objective (mouse sperm) and a 20× objective (human sperm) (UPLSAPO, NA 0.8; Olympus) was combined with a high-speed camera (ORCA Fusion; Hamamatsu). Dark-field videos were recorded with a frame rate of 200 Hz. The temperature of the heated stage was set to 37° C. (stage top incubator WSKMX; TOKAI HIT).
# An inverted dark-field video microscope (IX73; Olympus) with a 10×objective (mouse sperm) or a 20×objective (human sperm) (UPLSAPO, NA 0.8; Olympus) was combined with a high-speed camera (ORCA Fusion; Hamamatsu). Dark-field videos were recorded with a frame rate of 200 Hz. The temperature of the heated stage was set to 37° C. (stage top incubator WSKMX; TOKAI HIT). The images were preprocessed with the imageJ plugin SpermQ Preparator (Gaussian blur with sigma 0.5 px; Subtract background method with radius 5 px) and analyzed using the ImageJ plugin SpermQ [Reference 84]. The beat frequency was determined from the highest peak in the frequency spectrum of the curvature time course, obtained by Fast Fourier Transform.
# human sperm [2] = assay: Flagellar beat analysis of single sperm; details: stimulation with 25 mM NaHCO3; 0.2 μM Example 1 (FIG. 13), 10 nM Example 133
# Description: Motile sperm were allowed to swim up into the HTF layer, while immotile sperm, as well as other cells or tissue debris, did remain in the ejaculate fraction.
# immobilized sAC protein = assay: Binding kinetics by surface plasmon resonance
# Experimental: After coupling, remaining reactive groups on the chip's surface were blocked with 1 M ethanolamine followed by 350 mM EDTA to wash away any free Ni^2+. […] All experiments included reference channels; i.e., inhibitor run over parallel channels without immobilized protein. Binding kinetics were determined by subtracting responses in the reference channels from responses in the active channels. Curves were fitted, and kon and koff values were determined using the Biacore 8K Insight Evaluation Software Version 2.0 (Cytiva) and a 1:1 binding kinetics model.
# epididymal mouse sperm = assay: Ex vivo sperm motility (CASA) from injected mice; format: in vivo; details: for sperm motility ex vivo: one hour post-injection, diluted 1:200 in inhibitor-free media
# Experimental: For ex vivo assessment of mouse sperm from inhibitor-injected mice, sperm (25 μl) isolated at the indicated time points (1 hour to 24 hours post-injection) were loaded on a […] Leja slide (Hamliton Thorne) and placed on a microscope stage at 37° C. Sperm movements of 10 fields of at least 500 sperm were examined using computer-assisted sperm analysis (CASA) via Hamilton-Thorne digital image analyzer (IVOS II, Hamilton Thorne Research, Beverly, MA) with the following parameters: 30 frames, frame rate: 60 Hz, cell size: 30-170 μm^2.
# human sperm [3] = assay: Intracellular cAMP in sperm in vitro; format: cell-based; details: for bicarbonate-induced cAMP rise: 5 μM Example 1 or 10 nM Example 133, capacitating media
# Experimental: (§1) cAMP generation was measured in mouse and human sperm. For mouse sperm, aliquots of 2×10^6 mouse sperm were incubated for 12 minutes in the presence or absence of sAC inhibitor in non-capacitating or capacitating TYH buffer. For human sperm, aliquots of 2×10^6 human sperm were incubated for 30 minutes in the presence or absence of sAC inhibitor in non-capacitating or capacitating HTF buffer. In both cases, 0.1% DMSO was used as vehicle control.
# (§2) After 5 min, 150 μl of sperm/inhibitor mix was diluted into 1.35 ml non-capacitating or capacitating media with no inhibitor. After 12 minutes (mouse sperm) or 30 minutes (human sperm), sperm were sedimented by centrifugation at 2,000×g for 3 minutes and lysed in 200 μl HCl for 10 minutes. Sperm lysates were centrifuged at 2,000×g for 3 minutes and the cAMP in the supernatant was acetylated and quantified using the Direct cAMP ELISA (Enzo).
# mouse sperm [4] = assay: Intracellular cAMP in sperm in vitro; format: cell-based; details: for bicarbonate-induced cAMP rise: 5 μM Example 1 or 10 nM Example 133, capacitating media, 12 minutes
# Experimental: as §1, §2
# mouse sperm [5] = assay: Ex vivo sperm tyrosine phosphorylation (Western blot) from injected mice; format: in vivo; details: 50 mg/kg i.p., one hour post injection
# Experimental: After 15 minutes swim-out at 37° C., sperm from two caudae were combined and counted using a hematocytometer. For capacitation, sperm were incubated for 90 minutes in TYH containing 3 mg/ml BSA and 25 mM NaHCO3 in a 37° C. incubator. To control for the consequences of dilution during isolation of epididyrnal mouse sperm for ex vivo assays, the ability for bicarbonate to induce a prototypical pattern of tyrosine phosphorylation (pY) which is a widely used molecular hallmark of capacitation was assessed [Reference 80]. Bicarbonate-induced pY is known to be sAC dependent in vitro [References 37, 46, 62]. For experiments studying sperm from injected mice, ‘swim out’ was performed in 200 μl TYH, which corresponded to a 1:10 dilution from epididymis ([…] in 200 μl buffer). Capacitation induced changes were assessed by adding 50 μl of ‘swim out’ sperm to increasing volumes of non-capacitating or capacitating TYH buffer.
# Mouse sperm from vehicle or inhibitor-injected mice were isolated 1 hour from male mice injected (i.p.) with 150 μl of solution containing sAC inhibitor or vehicle. Sperm were diluted 1:20 to 1:1000 in capacitating TYH media. As control, sperm from vehicle-injected mice were diluted 1:1000 in non-capacitating and capacitating TYH buffer. The samples were incubated for 90 minutes, washed with 1 ml PBS and sedimented by centrifugation at 2,000×g for 3 minutes. The sedimented sperm were resuspended in 15 μl 2× Laemmli sample buffer [Reference 83], heated for 5 minutes at 95° C., supplemented with 8 μl β-mercaptoethanol and heated again for 5 minutes at 95° C. For Western blot analysis, proteins were transferred onto PVDF membranes (Thermo Scientific), probed with anti-phosphotyrosine antibodies, and analyzed using a cherniluminescence detection system. Image lab (Bio-Rad) was used for densitometric analysis of Western blots.
# [6] = Serum levels after single i.p. injection; format: in vivo, mouse; details: single intraperitoneal (i.p.) injection
# [7] = swim out sperm minimally diluted
# [8] = preincubation 5 min in 5 μM Example 1 or 10 nM Example 133, then dilution (legend 1:10; text 100-fold)
SMILES,bicarbonate-induced change in flagellar beating / beat frequency (mouse sperm [1]),bicarbonate-induced change in flagellar beating / beat frequency (human sperm [2]),off-rate (T1/2) (immobilized sAC protein),sperm motility ex vivo (epididymal mouse sperm; 50 mg/kg i.p.),bicarbonate-induced cAMP rise (human sperm [3]),bicarbonate-induced cAMP rise (mouse sperm [4]),capacitation-induced tyrosine phosphorylation (pY) pattern ex vivo (mouse sperm [5]; diluted 25 fold),capacitation-induced tyrosine phosphorylation (pY) pattern ex vivo (mouse sperm [5]; [7]),time to maximum serum levels (C max) [6],"sperm that recovered (progressive) motility (epididymal mouse sperm; 50 mg/kg i.p., 9 hours post injection, diluted 1:200)",cytotoxicity to sperm (epididymal mouse sperm; exogenous membrane-permeable cAMP rescued motility),inhibition of bicarbonate-induced cAMP synthesis after dilution into inhibitor-free media (human sperm [3]; [8]),inhibition of bicarbonate-induced cAMP synthesis after dilution into inhibitor-free media (mouse sperm [4]; [8]),capacitation-induced tyrosine phosphorylation (pY) pattern ex vivo (mouse sperm [5]; diluted 100 fold)
"Cc1c(Cc2ccccc2)c(-c2cc(Cl)nc(N)n2)nn1C [Example 1, 4-(4-benzyl-1,5-dimethyl-pyrazol-3-yl)-6-chloro-pyrimidin-2-amine]",prevents bicarbonate-induced changes in flagellar beating pattern,prevents bicarbonate-induced changes in flagellar beating pattern,0.333 min,indistinguishable from sperm isolated from vehicle-injected mice,blocks the bicarbonate-induced cAMP rise,blocks the bicarbonate-induced cAMP rise,restored,blocked,≤ 7.5 min,–,–,–,–,–
Nc1nc(Cl)cc(-c2nn(C(F)F)cc2Cc2ccccc2OCCN2CCOC[C@H]2CO)n1 [Example 133],more potent than Example 1,more potent than Example 1,75.8 min,essentially immotile,completely block,completely block,–,blocked,≤ 7.5 min,20%,not cytotoxic,survived a 100-fold dilution; also recorded: inhibits capacitation induced cAMP rise in diluted sperm,survived a 100-fold dilution; also recorded: inhibits capacitation induced cAMP rise in diluted sperm,remained blocked
